The test system of one assay is HMGB1. The assay is described as follows: Extracellular release of HMGB1 into cell culture media by ELISA. The format is cell-based. To be noted: 12.5 μM Compound A, 1 μM FUdR; 24 hours. The text has this:
Experimental Overview. High mobility group box 1 (HMGB1) is a nuclear non-histone chromatin-binding protein. The release of HMGB1 by immune cells or severely damaged cancer cells functions as an immunostimulatory chemokine and is a well-known damage-associated molecular pattern (DAMP). The release of HMGB1 during cell death is characteristic of immunogenic cell death, a sub-class of cell death that results in the potent stimulation of the innate and subsequently the stimulation of adaptive immune responses. HMGB1 functions as a pro-inflammatory cytokine-like factor and can form hetero-complexes with other immune regulators. HMGB1 binds to TLRs, RAGE and CXCR4 on immune cells stimulating chemotaxis and the secretion of pro-inflammatory factors. HCT116 colon carcinoma and JU77 mesothelioma cells were treated with vehicle control (DMSO), 12.5 μM Compound A, 1 μM FUdR, or the combination of 12.5 μM Compound A and 1 μM FUdR for 24 hours and the release of HMGB1 into the extracellular culture media was measured by ELISA.
Cell Line Model Selection and Preparation. The HCT116 cancer cell line was purchased from ATCC. JU77 cell line was a kind gift from Dr Dan Longley, QUB. Cells were cultured and expanded in humidified incubators at 5% CO2 until sufficient cells were available.
Drug Preparation and Treatments. All drugs/compounds were prepared freshly in cell culture media from 50 mM frozen stocks prior to treatment. Cells were seeded in 6-well culture dishes and allowed to adhere overnight before treatment with Compound A, FUdR, or Compound A in combination with FUdR. Additional wells were treated with doxorubicin to act as a positive inducer of HMGB1. Twenty-four hours after treatment, the media was aspirated and centrifuged (2500 rpm, 5 min, at 4° C.) to remove any cellular debris. The supernatant was collected for immediate processing or stored at −80° C. for later assay.
Detection of HMGB1 Release. HMGB1 was quantified using the HMGB1 ELISA kit (ST51011, IBL International). Enzyme conjugate (HMGB1 conjugated to peroxidase) and standard were reconstituted in 12 ml enzyme conjugate diluent, and 1 ml diluent buffer respectively and aliquots frozen at −80° C. until required. All reagents and samples were brought to room temperature immediately prior to use. A standard curve was prepared for the high sensitive detection range (0.313-10 ng/ml). 50 μl diluent buffer was pipetted into each well of the microtiter plate. 50 μl of standard, sample, positive control or negative control (diluent buffer) was pipetted, in duplicate, into respective wells as determined by the plate set up. The plate was covered with adhesive foil and incubated at 37° C. for 20 to 24 hours on an orbital shaker (450 rpm). Following the incubation period the incubation solution was discarded and the plate washed (5×300 μl per well). Excess wash buffer was removed by inversion on to a paper towel. 100 μl enzyme conjugate was added to each well, the plate covered with adhesive foil and incubated at 25° C. for 2 hours on an orbital shaker (450 rpm). Following the incubation the solution was discarded and the plate washed as before. Fresh color solution was prepared immediately prior to use and 100 μl added to each well using a multichannel pipette. The plate was then incubated for 30 minutes at room temperature. The color reaction was stopped by pipetting 100 μl of stop reagent to each well using a multichannel pipette. The plate was shaken gently to mix and the backs of the wells were cleaned using a lint-free tissue. The concentration of HMGB1 was determined on a CLARIOstar microplate reader by measuring the absorbance at 450 nm using a reference reading at 640 nm. Data was exported to Microsoft Excel for processing and statistical analysis consisting of one-way ANOVA with Tukey's Multiple Comparisons Test was performed in GraphPad Prism 6.

The next assay concerns cytoplasmic dsDNA. As to the kind of experiment: Cytoplasmic dsDNA by fluorescence microscopy. To be noted: 12.5 μM Compound A, 1 μM FUdR; 24 hours. The format is cell-based. The method, then:
Experimental Overview. Aberrant host DNA metabolism as a result of failed cell division or genotoxic stress leads to the release of nuclear DNA into the cytoplasm and is a well-known damage-associated molecular pattern. The subsequent detection of cytoplasmic double-stranded DNA (dsDNA) by pattern recognition receptors triggers a variety of innate immune signaling and biological responses. HCT116 colon and PANC-1 pancreatic carcinoma cells were seeded on coverslips and treated with vehicle control (DMSO), 12.5 μM Compound A, 1 μM FUdR, or the combination of 12.5 μM Compound A and 1 μM FUdR for 24 hours. At 24 hours post-treatment cells were fixed and stained with an anti-dsDNA (double-stranded DNA) antibody and the nuclear stain DAPI. Immunofluorescence was detected and images acquired by fluorescence microscopy to quantify levels of dsDNA in the cytoplasm.
Cell lines, Drug Treatments and Fluorescence Microscopy. HCT116 colon and PANC-1 pancreatic carcinoma cells (5×10^4) were seeded onto glass coverslips within 24-well plates in relevant media. The following day, seeding media was removed and replaced with drug-containing media and incubated for 24 hours. At 24 […] hours post-treatment cells were fixed and processed. Briefly, cell membranes were permeabilised, incubated with FITC-conjugated dsDNA marker antibody (HYB331-01) from Santa Cruz Biotechnology, sc-58749 (1:500 dilution) and mounted onto slides with ProLong Gold antifade with DAPI (Invitrogen P36931). Images were acquired on a Nikon Fluorescent Microscope. Exposure time was selected for FITC using negative and positive controls and kept constant throughout image acquisition. Images were analyzed using ImageJ software. Cell nuclei were identified using DAPI staining. Intensity of cytoplasmic dsDNA staining was established by quantifying the intensity of the staining in the immediate area surrounding the nucleus. Software settings: Gaps to ring=3 and Ring size=25 (FIG. 16).

For `O=c1[nH]c(=O)n([C@H]2C[C@H](O)[C@@H](CO)O2)cc1F` [FUdR], in the assay on HMGB1, the “increase in concentration of HMGB1 in cell culture media compared to control, HCT116 cells” value is “no significant difference” and the “increase in concentration of HMGB1 in cell culture media compared to control, JU77 cells” value was “no significant difference”. Also, in the assay with cytoplasmic dsDNA, the “increase in mean relative cytoplasmic DNA compared to vehicle-treated control, HCT116 cells” value is “no statistically significant difference” and the “increase in mean relative cytoplasmic DNA compared to vehicle-treated control, PANC-1 cells” value worked out at 56%.
In the case of `C[C@@H](NS(=O)(=O)CCCCCN1CC(=O)NC1=O)c1ccc(F)c(OCC2CC2)c1` [Compound A], in the assay with HMGB1, the “increase in concentration of HMGB1 in cell culture media compared to control, HCT116 cells” value was “no significant difference” and the “increase in concentration of HMGB1 in cell culture media compared to control, JU77 cells” value was “no significant difference”. For the same compound, in the assay with cytoplasmic dsDNA, the “increase in mean relative cytoplasmic DNA compared to vehicle-treated control, HCT116 cells” value is “no statistically significant difference” and the “increase in mean relative cytoplasmic DNA compared to vehicle-treated control, PANC-1 cells” value is 74%.
